Converted amounts (≈) assume the structure as drawn.
System: MRSA N7
Assay: MIC testing, clinical strain
Type: cell-based
Settings: Staphylococcus aureus
Description: Methicillin-resistant Staphylococcus aureus (MRSA) ATCC 43300, Staphylococcus aureus ATCC 29213, Escherichia coli ATCC 25922, Salmonella typhimurium ATCC 14028, Enterococcus faecalis ATCC 29212, and Enterococcus faecium ATCC 35667 were obtained from the China Institute of Veterinary Drug Control (Beijing, China). Five clinical strains of MRSA (N7, N9, N20, N30, and N54) were isolated from diseased pig tissues of South China Agricultural University and Foshan University Animal Hospital. All clinical strains were identified as MRSA by Gram stain, catalase reaction, coagulase test, staphylococcus API identification system test, MecA gene test, and methicillin MIC test.
The MIC of amphenmulin against MRSA, Escherichia coli, Salmonella typhimurium, Enterococcus faecalis, and Enterococcus faecium were determined using tiamulin as controls. MIC values were measured by the method of previous work. Staphylococcus aureus ATCC 29213 was used as the quality control bacteria, and the quality control range was referred to the Clinical and Laboratory Standards Institute (CLSI). The bacteria solution was diluted to ~10^6 CFU/mL with Mueller–Hinton (MH) broth for MRSA, Escherichia coli and Salmonella typhimurium while Trypticase Soy Broth for Enterococcus faecalis and Enterococcus faecium. Drugs were dissolved in an aqueous solution of N, N-dimethylformamide (DMF) at a concentration of 2560 µg/mL, and then diluted with broth to prepare working solution (1280 µg/mL). The drug susceptibility testing was performed in 96-well plate. A total of 20 µL of working solution was added into column 1 and well mixed as a 10-fold dilution, following which Serial 2-fold dilutions were prepared to provide concentration ranges of 128–0.0078 µg/mL. Blank broth (no cultures) and bacteria solution (drugs replaced by blank solvent) were set as drug-free controls. Each 96-well plate was cultured at 37 °C for 24 h. The MIC value is the lowest concentration of amphenmulin which inhibits the visible growth of bacteria. The experiment was repeated three times.

C=C[C@]1(C)C[C@@H](OC(=O)CSc2ccccc2N)[C@]2(C)[C@H](C)CC[C@]3(CCC(=O)[C@H]32)[C@@H](C)[C@@H]1O [Amphenmulin, 22-(2-amino-phenylsulfanyl)-22-deoxypleuromutilin]
MIC: 4 µg/mL (≈ 8.24 µM)
